Laboratory results as given in patent US20250099420A1, “SMALL MOLECULE MODULATORS OF GPR139 COMPLEX” (University of Florida Research Foundation, Incorporated, priority 2022, published 2025).
pEC50: −log10 of the molar value. Read-outs that look alike come from different tables or passages of the source.

How the values were obtained:
parental HEK cells = experiment: HEK parental Agonist Counterscreen Assay (non-transfected cells); format: cell-based; details: for Averaged Max % Response (±St. Dev.): activity relative to known control
Excerpt: The high control for the agonist counterscreen was Forskolin not acetylcholine.

GPR139 = target: T1, GPR139 (Homo sapiens, UniProt Q6DWJ6); experiment: GPR139 Agonist titration / agonist counterscreen assay (calcium detection, HEK-GPR139 cells); format: cell-based; parameters: expressed in transfected cells; host or cells: HEK Aequorin cells, Maxcyte transient transfection; details: GPR139 Agonist Activity; for Averaged Max % Response (±St. Dev.): activity relative to known control; for pEC50: read-out: EC50
T1 sequence (Q6DWJ6 1-353): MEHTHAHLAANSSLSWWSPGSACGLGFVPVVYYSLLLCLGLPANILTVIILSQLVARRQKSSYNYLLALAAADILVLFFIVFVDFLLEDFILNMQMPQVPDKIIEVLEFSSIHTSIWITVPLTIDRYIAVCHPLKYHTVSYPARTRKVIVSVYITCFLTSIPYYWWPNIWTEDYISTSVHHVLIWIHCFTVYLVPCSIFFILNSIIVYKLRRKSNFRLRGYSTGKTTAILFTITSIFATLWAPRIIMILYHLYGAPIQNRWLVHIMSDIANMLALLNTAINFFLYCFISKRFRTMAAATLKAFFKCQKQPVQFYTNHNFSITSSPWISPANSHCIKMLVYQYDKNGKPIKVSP
Procedure: GPR activity was assessed using a calcium detection assay. […] Negative control samples were treated with DMSO. […] Intracellular calcium was measured using Calcium 5.

[1] = values printed in E-notation without unit
[2] = Homo sapiens, HEK293, HEK Agonist Activity section of Table 4 (parental HEK counterscreen)
[3] = Homo sapiens, HEK293, HEK Agonist Activity, parental non-transfected HEK cells

Cc1ccc2c(CC(=O)NNC(=O)CC34CC5CC(CC(C5)C3)C4)coc2c1 [SR-01000054849]
Lipophilic Efficiency (logD) (parental HEK cells; HEK Agonist Activity section): 1.41
Lipophilic Efficiency (logP) (parental HEK cells; HEK Agonist Activity section): 1.41
pEC50 (parental HEK cells; HEK Agonist Activity section of Table 4 (parental HEK counterscreen)): < 4.83
Averaged Max % Response (±St. Dev.) (parental HEK cells; HEK Agonist Activity section): 1.19 ± 3.75%
Averaged Max % Response (±St. Dev.) (GPR139): 93.14 ± 10.62%
Lipophilic Efficiency (logD) (GPR139; based on logD): 3.67
Lipophilic Efficiency (logP) (GPR139; based on logP): 3.67
Hill Slope (GPR139; fitted dose-response curve): 0.47
Efficiency Ligand (GPR139; ligand efficiency): 0.35
pEC50 (GPR139; [1]): 7.09

COc1ccc2cc(C3(C)CC(=O)N(CC(=O)N(CC(C)C)CC(C)C)C3=O)ccc2c1 (centres unmarked) [SR-01000054961]
Lipophilic Efficiency (logD) (parental HEK cells; HEK Agonist Activity section): 1.27
Lipophilic Efficiency (logP) (parental HEK cells; HEK Agonist Activity section): 1.27
Averaged Max % Response (±St. Dev.) (parental HEK cells; HEK Agonist Activity section): 6.24 ± 6.42%
pEC50 (parental HEK cells; [2]): < 4.85
Efficiency Ligand (GPR139): 0.26
Hill Slope (GPR139): 0.85
Lipophilic Efficiency (logD) (GPR139): 2.43
Lipophilic Efficiency (logP) (GPR139): 2.43
Averaged Max % Response (±St. Dev.) (GPR139): 79.59 ± 15.93%

COc1cc(C(=O)NNC(=O)COc2ccc3ccccc3c2)cc(OC)c1OC [SR-01000056004]
Lipophilic Efficiency (logD) (parental HEK cells; HEK Agonist Activity section): 2.56
Lipophilic Efficiency (logP) (parental HEK cells; HEK Agonist Activity section): 2.55
Averaged Max % Response (±St. Dev.) (parental HEK cells; HEK Agonist Activity section): −16.39 ± 11.45%
pEC50 (parental HEK cells; [2]): < 4.82
Efficiency Ligand (GPR139): 0.30
Hill Slope (GPR139): 0.89
Lipophilic Efficiency (logD) (GPR139): 4.08
Lipophilic Efficiency (logP) (GPR139): 4.08
pEC50 (GPR139; HEK-GPR139 cells): 6.35
Averaged Max % Response (±St. Dev.) (GPR139): 81.95 ± 3.88%

COc1cc(C(C)=O)ccc1OCC(=O)OCC(=O)NCCCc1ccccc1 [SR-01000056458]
Lipophilic Efficiency (logD) (parental HEK cells; HEK Agonist Activity section): 2.66
Lipophilic Efficiency (logP) (parental HEK cells; HEK Agonist Activity section): 2.66
Averaged Max % Response (±St. Dev.) (parental HEK cells; HEK Agonist Activity section): 19.25 ± 6.92%
pEC50 (parental HEK cells; [2]): < 4.85
Averaged Max % Response (±St. Dev.) (GPR139): 119.47 ± 9.11%
Lipophilic Efficiency (logD) (GPR139; based on logD): 5.10
Lipophilic Efficiency (logP) (GPR139; based on logP): 5.10
Hill Slope (GPR139; fitted dose-response curve): 0.52
Efficiency Ligand (GPR139; ligand efficiency): 0.35
pEC50 (GPR139; [1]): 7.29

CC1(c2ccc(Cl)cc2)NC(=O)N(CC(=O)NCc2cccs2)C1=O (centres unmarked) [SR-01000058107]
Lipophilic Efficiency (logD) (parental HEK cells; HEK Agonist Activity): 2.55
Lipophilic Efficiency (logP) (parental HEK cells; HEK Agonist Activity): 2.55
Averaged Max % Response (±St. Dev.) (parental HEK cells; HEK Agonist Activity): 4.84 ± 7.51%
pEC50 (parental HEK cells; [3]): < 4.83
Averaged Max % Response (±St. Dev.) (GPR139): 95.61 ± 13.32%
Lipophilic Efficiency (logD) (GPR139; based on logD): 5.35
Lipophilic Efficiency (logP) (GPR139; based on logP): 5.35
Hill Slope (GPR139; fitted dose-response curve): 0.85
Efficiency Ligand (GPR139; ligand efficiency): 0.43
pEC50 (GPR139; [1]): 7.63

CC1(c2ccc3ccccc3c2)NC(=O)C(CC(=O)NCc2ccco2)C1=O (centres unmarked) [SR-01000058120]
Lipophilic Efficiency (logD) (parental HEK cells; HEK Agonist Activity): 2.18
Lipophilic Efficiency (logP) (parental HEK cells; HEK Agonist Activity): 2.18
Averaged Max % Response (±St. Dev.) (parental HEK cells; HEK Agonist Activity): 11.91 ± 6.77%
pEC50 (parental HEK cells; [3]): < 4.84
Averaged Max % Response (±St. Dev.) (GPR139): 103.66 ± 2.94%
Lipophilic Efficiency (logD) (GPR139; based on logD): 4.73
Lipophilic Efficiency (logP) (GPR139; based on logP): 4.73
Hill Slope (GPR139; fitted dose-response curve): 0.17
Efficiency Ligand (GPR139; ligand efficiency): 0.37
pEC50 (GPR139; [1]): 7.39

O=C(CSc1ccc(Cl)cc1)NNC(=O)c1ccc(O)cc1 [SR-01000060349]
Lipophilic Efficiency (logD) (parental HEK cells; HEK Agonist Activity): 2.34
Lipophilic Efficiency (logP) (parental HEK cells; HEK Agonist Activity): 2.30
Averaged Max % Response (±St. Dev.) (parental HEK cells; HEK Agonist Activity): 36.27 ± 9.28%
pEC50 (parental HEK cells; [3]): < 4.82
Averaged Max % Response (±St. Dev.) (GPR139): 123.74 ± 9.56%
Lipophilic Efficiency (logD) (GPR139; based on logD): 5.31
Lipophilic Efficiency (logP) (GPR139; based on logP): 5.26
Hill Slope (GPR139; fitted dose-response curve): 0.81
Efficiency Ligand (GPR139; ligand efficiency): 0.50
pEC50 (GPR139; [1]): 7.79

COc1ccccc1NC(=O)NNC(=O)CSc1cc(C)c(Br)cc1C [SR-01000061624]
Lipophilic Efficiency (logD) (parental HEK cells; HEK Agonist Activity): 0.94
Lipophilic Efficiency (logP) (parental HEK cells; HEK Agonist Activity): 0.93
Averaged Max % Response (±St. Dev.) (parental HEK cells; HEK Agonist Activity): 13.43 ± 5.07%
pEC50 (parental HEK cells; [3]): < 4.85
Averaged Max % Response (±St. Dev.) (GPR139): 120.81 ± 8.57%
Lipophilic Efficiency (logD) (GPR139; based on logD): 4.01
Lipophilic Efficiency (logP) (GPR139; based on logP): 4.00
Hill Slope (GPR139; fitted dose-response curve): 1.00
Efficiency Ligand (GPR139; ligand efficiency): 0.43
pEC50 (GPR139; [1]): 7.92

CCCCNC(=O)NNC(=O)CSc1cc(C)c(Br)cc1C [SR-01000061818]
Lipophilic Efficiency (logD) (parental HEK cells; HEK Agonist Activity): 1.46
Lipophilic Efficiency (logP) (parental HEK cells; HEK Agonist Activity): 1.46
Averaged Max % Response (±St. Dev.) (parental HEK cells; HEK Agonist Activity): 3.00 ± 9.38%
pEC50 (parental HEK cells; HEK Agonist Activity, parental non-transfected HEK cells): < 4.84
Averaged Max % Response (±St. Dev.) (GPR139): 110.53 ± 3.36%
Lipophilic Efficiency (logD) (GPR139; based on logD): 4.41
Lipophilic Efficiency (logP) (GPR139; based on logP): 4.41
Hill Slope (GPR139; fitted dose-response curve): 0.71
Efficiency Ligand (GPR139; ligand efficiency): 0.50
pEC50 (GPR139; [1]): 7.79
